Measurements from PMC7382147, “An effective UFLC–MS/MS method used to study pharmacokinetics of major constituents of Fukeqianjin formula in rat plasma” (Chinese Medicine, 2020).
Where two headings read alike, the source gives them in different places.

Legend:
[1] = Pharmacokinetic study in rat plasma after oral administration of FKQJF extract (UFLC–MS/MS); format: in vivo, Sprague-Dawley (SD) rats; settings: for AUC(0-inf) / AUC(0-t) / Cmax / half-life / MRT last / MRT inf / Tmax: oral FKQJF extract, single dose 3.2 g/kg, mean ± SD; for MRT last: read-out: MRT0→t; for MRT inf: read-out: MRT0→∞; for shape of the plasma concentration–time curve / time of first peak of the concentration–time curve / time of second peak of the concentration–time curve: oral FKQJF extract 3.2 g/kg; for time of first peak of the concentration–time curve / time of second peak of the concentration–time curve: post dose
Method: (§1) Aliquots of 100 μL plasma samples were mixed with 10 μL I.S. samples (1 μg/mL, in MeOH), then added with 500 μL ACN, respectively, and vortexed for 5 min, centrifugated at 10,000 rpm for 10 min, the supernatants were transferred into clean vials and dried in a vacuum centrifugal concentrator at 1200 rpm, 37 °C. After that, 100 μL ACN was added and ultrasonic (frequency 40 kHz, power 250 W) extracted for 5 min to dissolve the dry residue, vortexed for 1 min and centrifugated at 10,000 rpm for 5 min, 1 μL of each final supernatant was injected into UFLC–MS/MS for analysis.
An 8050 UFLC–MS/MS system equipped with LC-30A binary pump, a SIL-30AC autosampler, a SPD-M30A PDA detector, a CTO-20AC column oven, and a 8050 triple quadrupole mass spectrometer with an electrospray ionization source (ESI) was applied to detect and quantify FKQJF compounds in plasma samples. Data were acquired and processed with the software LabSolution (Ver. 5.6).
A Kinetex XB-C18 HPLC column (100 × 2.1 mm, 2.6 μm) linked with an equivalent guard column was used for chromatographic separation. The aqueous phase contained 0.2% formic acid was used as mobile phase A, and organic phase ACN as mobile phase B. The gradient elution method using in this program was: 3–5 min, 28–31% B; 5–7 min, 31–34% B; 7–9 min, 34–65% B; 9–10 min, 65–95% B; 10–11.5 min, 95% B. The flow rate of mobile phase, column temperature and autosampler temperature was 0.4 mL/min, 30 °C and 4 °C, respectively. The injection volume of each sample was set as 1 μL. The main MS spectrum parameters were set as follows: the flow rate of drying gas (N2) was 10.0 L/min; the atomized gas was 3.0 L/min and the heating gas flow rate was 10.0 L/min. The main temperatures of interface, desolvation and heat block was 300 °C, 250 °C and 400 °C, respectively. And, the interface and detector voltage were 3 kV and 1.8 kV.
Rats were divided into a blank group and a FKQJF administration group (6 rats for each), and fasted for 24 h. Each rat of the administration group was given FKQJF extract suspension at a single dose of 3.2 g FKQJF/kg body weight through oral administration in parallel. Blood samples (0.25 mL) were gathered from the orbital venous plexus of each rat, with FKQJF group gathered at 14 serial timepoints (6 rats for each) as 0.083 h, 0.16 h, 0.33 h, 0.5 h, 0.75 h, 1.0 h, 1.5 h, 2 h, 3 h, 4 h, 6 h, 8 h, 12 h and 24 h after drug administration. The blood samples were centrifugated at 6000g for 10 min to isolate plasma and stored at − 20 °C for further analysis.
Data were analyzed using the Drug and Statistics (DAS) Software version 2.0 (DAS 2.0, Mathematical Pharmacology Professional Committee of China, Shanghai, China). The non-compartmental mode was applied to obtain the following PK parameters: area under the plasma concentration–time curve from time zero to the time of last quantifiable concentration (AUC0→t) and area under the plasma concentration–time curve to time infinity (AUC0→∞), the elimination half-life (t1/2), mean retention time to last sampling time (MRT0→t) and mean retention time to infinity (MRT0→∞). The maximum plasma concentration (Cmax) and the time to maximum concentration (Tmax) were observed directly from the concentration–time (C–T) curves and measured data. All data are presented as mean ± SD.

[2] = Ordinary stability of QC samples (room temperature for 8 h); format: physicochemical, rat; settings: plasma QC, room temperature 8 h
Method: as §1
(§2) Six replicates of low, medium and high concentrations of quality control (QC) samples were used to verify the stabilities under different conditions including: place at room temperature for 8 h, freeze (− 20 °C) and thaw for three times, and store at − 20 °C for 20 days.

[3] = Freeze–thaw stability of QC samples (−20 °C, three times); format: physicochemical, rat; settings: plasma QC, freeze (−20 °C) and thaw three times
Method: as §1, §2

[4] = Long-term stability of QC samples (−20 °C for 20 days); format: physicochemical, rat; settings: plasma QC
Method: as §1, §2

Structure (SMILES) | AUC(0-inf) ([1]; Sprague-Dawley) | AUC(0-t) ([1]; Sprague-Dawley) | Cmax ([1]; Sprague-Dawley) | half-life ([1]; Sprague-Dawley) | MRT last ([1]; Sprague-Dawley) | MRT inf ([1]; Sprague-Dawley) | Tmax ([1]; Sprague-Dawley, read-out: Tmax) | shape of the plasma concentration–time curve [1] | Ordinary stability Mean ([2]; spiked 50 ng/mL) | Ordinary stability Mean ([2]; spiked 250 ng/mL) | Ordinary stability Mean ([2]; spiked 500 ng/mL) | Freeze–thaw stability Mean ([3]; spiked 50 ng/mL) | Freeze–thaw stability Mean ([3]; spiked 250 ng/mL) | Freeze–thaw stability Mean ([3]; spiked 500 ng/mL) | Long-term stability Mean ([4]; spiked 50 ng/mL) | Long-term stability Mean ([4]; spiked 250 ng/mL) | Long-term stability Mean ([4]; spiked 500 ng/mL) | Ordinary stability Mean ([2]; spiked 60 ng/mL) | Ordinary stability Mean ([2]; spiked 300 ng/mL) | Ordinary stability Mean ([2]; spiked 600 ng/mL) | also measured
COc1ccc(-c2coc3cc(O[C@@H]4O[C@H](CO)[C@@H](O)[C@H](O)[C@H]4O)ccc3c2=O)cc1 [Analyte 10, ononin] | 375 ± 153 ng·h/mL | 370 ± 156 ng·h/mL | 192 ± 32 ng/mL | 1.64 ± 0.52 h | 2.54 ± 1.12 h | 3.13 ± 1.66 h | 1.33 ± 0.58 h | double-peaks | 95.59% | 82.57% | 103.90% | 118.81% | 102.95% | 81.68% | 95.03% | 81.88% | 107.95% |  |  |  | 
COc1cc2c(cc1OC)-c1cc3ccc(OC)c(OC)c3c[n+]1CC2 [Analyte 11, palmatine] | 1640 ± 155 ng·h/mL | 691 ± 93.3 ng·h/mL | 134 ± 31.8 ng/mL | 9.16 ± 2.09 h | 11 ± 0.99 h | 14.2 ± 8.89 h | 1.67 ± 0.29 h |  |  |  |  |  |  |  |  |  |  |  |  |  | Ordinary stability Mean ([2]; spiked 5 ng/mL): 92.36%; Ordinary stability Mean ([2]; spiked 100 ng/mL): 81.64%; Freeze–thaw stability Mean ([3]; spiked 5 ng/mL): 94.51%; Freeze–thaw stability Mean ([3]; spiked 100 ng/mL): 98.74%; Long-term stability Mean ([4]; spiked 5 ng/mL): 87.02%; Long-term stability Mean ([4]; spiked 100 ng/mL): 101.38%; Long-term stability Mean ([4]; spiked 200 ng/mL): 89.65%
C=C1CC[C@@H]2[C@](C)(CO)[C@H](O)CC[C@@]2(C)[C@@H]1C/C=C1/C(=O)OC[C@H]1O [Analyte 12, andrographolide] | 480 ± 71.9 ng·h/mL | 442 ± 59.5 ng·h/mL | 186 ± 19 ng/mL | 1.79 ± 0.2 h | 2.45 ± 0.19 h | 3.1 ± 0.33 h | 1 ± 0.43 h | double-peaks |  |  |  |  |  |  |  |  |  | 115.56% | 107.50% | 85.93% | time of first peak of the concentration–time curve [1]: 0 to 1 h; time of second peak of the concentration–time curve [1]: 1.5 to 3 h; Freeze–thaw stability Mean ([3]; spiked 60 ng/mL): 84.52%; Freeze–thaw stability Mean ([3]; spiked 300 ng/mL): 86.83%; Freeze–thaw stability Mean ([3]; spiked 600 ng/mL): 93.19%; Long-term stability Mean ([4]; spiked 60 ng/mL): 115.89%; Long-term stability Mean ([4]; spiked 300 ng/mL): 94.37%; Long-term stability Mean ([4]; spiked 600 ng/mL): 96.64%
COc1ccc2cc3[n+](cc2c1OC)CCc1cc2c(cc1-3)OCO2 [Analyte 13, berberine] | 5630 ± 2430 ng·h/mL | 3800 ± 171 ng·h/mL | 619 ± 84.6 ng/mL | 38.8 ± 53.2 h | 8.04 ± 0.88 h | 39 ± 46.5 h | 8 h | double-peaks |  |  |  |  |  |  |  |  |  |  |  |  | Ordinary stability Mean ([2]; spiked 5 ng/mL): 84.57%; Ordinary stability Mean ([2]; spiked 100 ng/mL): 103.56%; Ordinary stability Mean ([2]; spiked 200 ng/mL): 113.97%; Freeze–thaw stability Mean ([3]; spiked 5 ng/mL): 97.72%; Freeze–thaw stability Mean ([3]; spiked 100 ng/mL): 110.44%; Freeze–thaw stability Mean ([3]; spiked 200 ng/mL): 104.87%; Long-term stability Mean ([4]; spiked 5 ng/mL): 102.75%; Long-term stability Mean ([4]; spiked 100 ng/mL): 81.78%; Long-term stability Mean ([4]; spiked 200 ng/mL): 114.48%
O=C1C[C@@H](c2ccc(O)cc2)Oc2cc(O)cc(O)c21 [Analyte 14, naringenin] | 206 ± 58.7 ng·h/mL | 144 ± 16.5 ng·h/mL | 67.7 ± 27.6 ng/mL | 12.1 ± 9.32 h | 6.67 ± 1.42 h | 17 ± 8.17 h |  |  | 80.39% | 92.68% | 101.11% | 88.34% | 116.86% | 84.71% | 91.66% | 103.10% | 99.51% |  |  |  | Tmax [1]: 2.00 ± 0.00 h
C=C1CC[C@@H]2[C@](C)(CO)[C@H](O)CC[C@@]2(C)[C@@H]1/C=C/C1=CCOC1=O [Analyte 15, 14-deoxy-11,12-didehydro-andrographolide] | 81.1 ± 19.4 ng·h/mL | 74.3 ± 17.5 ng·h/mL | 47.7 ± 5.92 ng/mL | 1.2 ± 0.74 h | 2.21 ± 0.48 h | 3.05 ± 1.01 h | 1.42 ± 0.63 h | double-peaks |  |  |  |  |  |  |  |  |  | 89.92% | 119.43% | 82.90% | time of first peak of the concentration–time curve [1]: 0 to 1 h; time of second peak of the concentration–time curve [1]: 1.5 to 3 h; Freeze–thaw stability Mean ([3]; spiked 60 ng/mL): 114.11%; Freeze–thaw stability Mean ([3]; spiked 300 ng/mL): 105.94%; Freeze–thaw stability Mean ([3]; spiked 600 ng/mL): 118.41%; Long-term stability Mean ([4]; spiked 60 ng/mL): 100.55%; Long-term stability Mean ([4]; spiked 300 ng/mL): 98.43%; Long-term stability Mean ([4]; spiked 600 ng/mL): 88.35%
COc1ccccc1-c1cc(=O)c2c(O)cc(OC)c(OC)c2o1 [Analyte 16, panicolin] | 251 ± 97.6 ng·h/mL | 177 ± 17.1 ng·h/mL | 31.4 ± 6.94 ng/mL | 12.6 ± 12.7 h | 8.68 ± 1.17 h | 20.1 ± 5.01 h | 2 h | double-peaks | 83.35% | 92.98% | 88.55% | 105.76% | 108.03% | 95.34% | 105.80% | 89.82% | 95.48% |  |  |  | 
C=C1CC[C@@H]2[C@](C)(CO)CCC[C@@]2(C)[C@@H]1CCC1=CCOC1=O [Analyte 17, andrograpanin] | 179 ± 14.3 ng·h/mL | 161 ± 12.7 ng·h/mL | 19.2 ± 2.48 ng/mL | 5.98 ± 0.4 h | 7.3 ± 0.38 h | 9.82 ± 0.45 h | 3.33 ± 2.31 h | double-peaks |  |  |  |  |  |  |  |  |  | 81.80% | 117.99% | 89.06% | Freeze–thaw stability Mean ([3]; spiked 60 ng/mL): 82.73%; Freeze–thaw stability Mean ([3]; spiked 300 ng/mL): 86.68%; Freeze–thaw stability Mean ([3]; spiked 600 ng/mL): 115.83%; Long-term stability Mean ([4]; spiked 60 ng/mL): 87.43%; Long-term stability Mean ([4]; spiked 300 ng/mL): 90.66%; Long-term stability Mean ([4]; spiked 600 ng/mL): 117.51%
